Where a name gives a salt, the structure may show the parent alone.
System: HIV-1 (HIVIIIB) replication in MT2 cell line
Experiment: HIV-1 replication in MT2 cell line with and without 30% human serum (viral RT activity in supernatant)
Assay type: cell-based
Conditions: Human immunodeficiency virus 1, MT2 cells, with 30% human serum, average IC50 if tested more than once, read-out: MT2 (HIVIIIB) with HS 30% IC50 range
How it was run: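 MT2 cells infected with HIV-1 IIIB at MOI 0.5 for 3 h, washed, seeded at 0.5×10^6/ml in RPMI/10% FBS with serially diluted compound, with or without 30% human serum; medium and compound refreshed on day 3. RT activity in supernatant at day 5; IC50 and IC90 derived.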

Compound	IC50 [nM]
CC(C)C1=C2[C@H]3CC[C@@H]4[C@@]5(C)CC[C@H](OC(=O)[C@H]6CC[C@@](C)(C(=O)O)C6(C)C)C(C)(C)[C@@H]5CC[C@@]4(C)[C@]3(C)CC[C@@]2(NC(=O)OC(C)(C)C)CC1=O [14-3, 3β-O-[(1′R,3′S)-1′,2′,2′-Trimethyl-cyclopentane-3′-carboxylic acid-1′-carboxyl]-17β-[N-tert-butyloxycarbonyl-amino]-21-oxolup-18-ene]	< 199
CC(C)C1=C2C3CCC4[C@@]5(C)CC[C@H](OC(=O)CC(C)(C)C(=O)O)C(C)(C)C5CC[C@@]4(C)[C@]3(C)CC[C@@]2(NC(=O)N2CCC(NC(=O)OC(C)(C)C)CC2)CC1=O (stereo partly drawn) [17-20, 3β-O-(3′,3′-Dimethylsuccinyl)-17β-[(4-tert-butoxycarbonylamino-piperidine-1-carbonyl)-amino]-21-oxolup-18-ene]	< 199
CC(C)C1=C2C3CCC4[C@@]5(C)CC[C@H](OC(=O)CC(C)(C)C(=O)O)C(C)(C)C5CC[C@@]4(C)[C@]3(C)CC[C@@]2(NC(=O)NCC2CC2)CC1=O (stereo partly drawn) [17-21, 3β-O-(3′,3′-Dimethylsuccinyl)-17β-(N′-cyclopropylmethyl-ureido)-21-oxolup-18-ene]	200 to 999
CC(C)OC(=O)N[C@@]12CC[C@]3(C)[C@H](CC[C@@H]4[C@@]5(C)CC[C@H](OC(=O)CC(C)(C)C(=O)O)C(C)(C)[C@@H]5CC[C@]43C)C1=C(C(C)C)C(=O)C2 [20-2]	< 199
CCc1nnc(C(=O)N[C@@]23CC[C@]4(C)C(CCC5[C@@]6(C)CC[C@H](OC(=O)CC(C)(C)C(=O)O)C(C)(C)C6CC[C@]54C)C2=C(C(C)C)C(=O)C3)o1 (stereo partly drawn) [19-79, 3β-O-(3′,3′-Dimethylsuccinyl)-17β-(5-ethyl-[1,3,4]-oxadiazole-2-amido)-21-oxolup-18-ene]	< 199
CC(C)C1=C2C3CCC4[C@@]5(C)CC[C@H](OC(=O)CC(C)(C)C(=O)O)C(C)(C)C5CC[C@@]4(C)[C@]3(C)CC[C@@]2(NC(=O)c2nnc(-c3ccccc3)o2)CC1=O (stereo partly drawn) [19-63, 3β-O-(3′,3′-Dimethylsuccinyl)-17β-(5-phenyl-[1,3,4]oxadiazole-2-amido)-21-oxolup-18-ene]	< 199
CC(C)C1=C2C3CCC4[C@@]5(C)CC[C@H](OC(=O)CC(C)(C)C(=O)O)C(C)(C)C5CC[C@@]4(C)[C@]3(C)CC[C@@]2(NC(=O)[C@@H]2CCCN2C(=O)OC(C)(C)C)CC1=O (stereo partly drawn) [19-57]	< 199
CC(C)C1=C2C3CCC4[C@@]5(C)CC[C@H](OC(=O)CC(C)(C)C(=O)O)C(C)(C)C5CC[C@@]4(C)[C@]3(C)CC[C@@]2(NC(=O)NCc2cccnc2)CC1=O (stereo partly drawn) [17-12, 3β-O-(3′,3′-Dimethylsuccinyl)-17β-[N′-(pyridin-3-ylmethyl)ureido]-21-oxolup-18-ene]	< 199
CC(C)C1=C2[C@H]3CC[C@@H]4[C@@]5(C)CC[C@H](OC(=O)CC(C)(C)C(=O)O)C(C)(C)[C@@H]5CC[C@@]4(C)[C@]3(C)CC[C@@]2(NC(=O)OC(C)(C)C)CC1=O [14-1, 3β-O-(3′,3′-Dimethylsuccinyl)-17β-tert-butyloxycarbonylamino-21-oxolup-18-ene]	< 199
CC(C)C1=C2C3CCC4[C@@]5(C)CC[C@H](OC(=O)CC(C)(C)C(=O)O)C(C)(C)C5CC[C@@]4(C)[C@]3(C)CC[C@@]2(NC(=O)N(C)C(C)C)CC1=O (stereo partly drawn) [17-18, 3β-O-(3′,3′-Dimethylsuccinyl)-17β-[N′-isopropyl-N′-methyl-ureido]-21-oxolup-18-ene]	< 199
CC(C)C1=C2[C@H]3CC[C@@H]4[C@@]5(C)CC[C@H](OC(=O)CC(C)(C)C(=O)O)C(C)(C)[C@@H]5CC[C@@]4(C)[C@]3(C)CC[C@@]2(NC(=O)CCN2CCCC2)CC1=O [19-37, 3β-O-(3′,3′-Dimethylsuccinyl)-17β-(3-pyrrolidin-1-yl-propionamido)-21-oxolup-18-ene]	< 199
CC(C)C1=C2C3CCC4[C@@]5(C)CC[C@H](OC(=O)CC(C)(C)C(=O)O)C(C)(C)C5CC[C@@]4(C)[C@]3(C)CC[C@@]2(NC(=O)NC2CCNCC2)CC1=O (stereo partly drawn) [17-10, 3β-O-(3′,3′-Dimethylsuccinyl)-17β-(N′-piperidin-4-yl-ureido)-21-oxolup-18-ene]	> 1000
CC(C)C1=C2C3CCC4[C@@]5(C)CC[C@H](OC(=O)CC(C)(C)C(=O)O)C(C)(C)C5CC[C@@]4(C)[C@]3(C)CC[C@@]2(NC(=O)c2cscn2)CC1=O (stereo partly drawn) [19-27, 3β-O-(3′,3′-Dimethylsuccinyl)-17β-(1,3-thiazole-4-amido)-21-oxolup-18-ene]	< 199
CC(C)C1=C2C3CCC4[C@@]5(C)CC[C@H](OC(=O)CC(C)(C)C(=O)O)C(C)(C)C5CC[C@@]4(C)[C@]3(C)CC[C@@]2(NC(=O)C2CCOCC2)CC1=O (stereo partly drawn) [19-30, 3β-O-(3′,3′-Dimethylsuccinyl)-17β-tetrahydro-pyran-4-carbonylamino-21-oxolup-18-ene]	< 199
CCNC(=O)N[C@@]12CC[C@]3(C)[C@H](CC[C@@H]4[C@@]5(C)CC[C@H](OC(=O)CC(C)(C)C(=O)O)C(C)(C)[C@@H]5CC[C@]43C)C1=C(C(C)C)C(=O)C2 [17-2, 3β-O-(3′,3′-Dimethylsuccinyl)-17β-[N′-(ethyl)ureido]-21-oxolup-18-ene]	< 199
CC(C)C1=C2C3CCC4[C@@]5(C)CC[C@H](OC(=O)CC(C)(C)C(=O)O)C(C)(C)C5CC[C@@]4(C)[C@]3(C)CC[C@@]2(NC(=O)NCc2cccs2)CC1=O (stereo partly drawn) [17-64, 3β-O-(3′,3′-Dimethylsuccinyl)-17β-[N′-(thiophen-2-ylmethyl)-ureido]-21-oxolup-18-ene]	< 199
CC(C)C1=C2C3CCC4[C@@]5(C)CC[C@H](OC(=O)CC(C)(C)C(=O)O)C(C)(C)C5CC[C@@]4(C)[C@]3(C)CC[C@@]2(NC(=O)c2ccccc2C(=O)O)CC1=O (stereo partly drawn) [19-61, 3β-O-(3′,3′-Dimethylsuccinyl)-17β-(2-carboxy-benzamido)-21-oxolup-18-ene]	< 199
CC(C)C1=C2[C@H]3CC[C@@H]4[C@@]5(C)CC[C@H](OC(=O)CC(C)(C)C(=O)O)C(C)(C)[C@@H]5CC[C@@]4(C)[C@]3(C)CC[C@@]2(NC(=O)c2cnccc2O)CC1=O [19-50, 3β-O-(3′,3′-Dimethylsuccinyl)-17β-(4-hydroxypyridine-3-yl)amido-21-oxolup-18-ene]	< 199
Cc1nnc(C(=O)N[C@@]23CC[C@]4(C)C(CCC5[C@@]6(C)CC[C@H](OC(=O)CC(C)(C)CC(=O)O)C(C)(C)C6CC[C@]54C)C2=C(C(C)C)C(=O)C3)o1 (stereo partly drawn) [19-75, 3β-O-(3′,3′-Dimethylglutaryl)-17β-(5-methyl-[1,3,4]oxadiazole-2-amido)-21-oxolup-18-ene]	< 199
CC(C)C1=C2[C@H]3CC[C@@H]4[C@@]5(C)CC[C@H](OC(=O)CC(C)(C)C(=O)O)C(C)(C)[C@@H]5CC[C@@]4(C)[C@]3(C)CC[C@@]2(NC(=O)NC[C@@H]2CCCN2C(=O)OC(C)(C)C)CC1=O [17-34, 3β-O-(3′,3′-Dimethylsuccinyl)-17β-[(3-(S)-1-tert-butyloxycarbonyl-pyrrolidin-2-ylmethyl)-ureido]-21-oxolup-18-ene]	< 199

Same assay, conditions: Human immunodeficiency virus 1, MT2 cells, without human serum, average IC50 if tested more than once, read-out: MT2 (HIVIIIB) IC50 range

Compound	IC50 [nM]
CC(C)OC(=O)N[C@@]12CC[C@]3(C)[C@H](CC[C@@H]4[C@@]5(C)CC[C@H](OC(=O)CC(C)(C)C(=O)O)C(C)(C)[C@@H]5CC[C@]43C)C1=C(C(C)C)C(=O)C2 [20-2]	< 199
CC(C)C1=C2[C@H]3CC[C@@H]4[C@@]5(C)CC[C@H](OC(=O)CC(C)(C)C(=O)O)C(C)(C)[C@@H]5CC[C@@]4(C)[C@]3(C)CC[C@@]2(NC(=O)OC(C)(C)C)CC1=O [14-1, 3β-O-(3′,3′-Dimethylsuccinyl)-17β-tert-butyloxycarbonylamino-21-oxolup-18-ene]	< 199
CCNC(=O)N[C@@]12CC[C@]3(C)[C@H](CC[C@@H]4[C@@]5(C)CC[C@H](OC(=O)CC(C)(C)C(=O)O)C(C)(C)[C@@H]5CC[C@]43C)C1=C(C(C)C)C(=O)C2 [17-2, 3β-O-(3′,3′-Dimethylsuccinyl)-17β-[N′-(ethyl)ureido]-21-oxolup-18-ene]	< 199

Same assay, conditions: read-out: MT2 (HIVIIIB) with HS 30% IC50 range, MT2 cells, with 30% human serum, average IC50 if tested more than once

Compound	IC50 [nM]
CC(C)C1=C2C3CCC4[C@@]5(C)CC[C@H](OC(=O)CC(C)(C)C(=O)O)C(C)(C)C5CC[C@@]4(C)[C@]3(C)CC[C@@]2(NC(=O)N2CCC(N)CC2)CC1=O (stereo partly drawn) [17-23, 3β-O-(3′,3′-Dimethylsuccinyl)-17β-[(4-amino-piperidine-1-carbonyl)-amino]-21-oxolup-18-ene trifluoroacetate]	200 to 999
